Laboratory results published in article PMC5335257, “Promoting in vivo remyelination with small molecules: a neuroreparative pharmacological treatment for Multiple Sclerosis” (Scientific Reports, 2017).

Key:
[1] = Pharmacokinetics in plasma and brain after single i.p. or oral dose; type: in vivo, male BALB/c mice; settings: for AUCinf / AUClast / Cmax / MRT inf / MRT last / Tmax / AUC(0-inf) / AUC(0-t): male BALB/c mice; for Cmax / MRT inf / MRT last / Tmax / AUC(0-inf) / AUC(0-t): mouse
[2] = test system: OPCs isolated from P0 mice; experiment: Differentiation assay, murine OPCs; type: cell-based, mouse
Description: We isolated OPCs, as previously described. Briefly, a stock papain solution was prepared containing ([…]; Worthington Biochemical), L-cysteine (0.2 mg/ml; Sigma), and EDTA (0.2 mg/ml; Sigma) in Hank’s Balanced Salt Solution (HBSS; Invitrogen) without Ca^2+ and Mg[2]. Then, the cerebral cortices of P0 CD1 mice were dissected out and placed for 5 minutes at 37 °C in a medium containing the stock papain solution in HBSS with Ca^2+ and Mg^2+ (1:10; Invitrogen) in order to easily remove the meninges. Once meninges and choroid plexus were removed, the tissue was enzymatically dissociated for 5 minutes at 37 °C again by using the papain solution (1:10 in HBSS without Ca^2+ and Mg^2+) and the digested tissue was then filtered through a 100 μm nylon mesh strainer (BD Biosciences) and seeded on poly-L-ornithine-coated (Sigma) 75 cm^2 flasks in DMEM medium (Invitrogen) containing 10% foetal bovine serum (FBS; BioWhittaker) and 100 U/mL penicillin, 0.1 mg/mL streptomycin and 0.25 μg/ml Amphotericin B antibiotic antimycotic solution (Sigma). Cultures were maintained at 37 °C and 5% CO2, and the medium was changed every 3 days. When the cultures reached confluence, they were shaken overnight at 250 rpm and at 37 °C in order to detach the OPCs located on the top of the confluent astrocyte monolayer and the medium was then filtered through a 40μm nylon mesh strainer (BDBiosciences) and centrifuged at 900 rpm. Cells were seeded twice (45 minutes each) in bacterial grade Petri dishes (Sterilin) to remove microglial cells. The resulting enriched oligodendrocyte progenitor cell suspension was counted and seeded.
(§1) Purified OPCs were placed on coverslips coated with poly-L-lysine and laminin in 24-well tissue culture dishes at a density of 2 × 10^4 cells/well. To promote differentiation, the cells were maintained in the differentiation medium (described above) and PDE7-GSK3 or GSK3 inhibitors (VP3.15 or TDZD8; 1 μM) were added to the culture medium. Different controls were used for the dual or single inhibitors due to the active substance being dissolved in differing amounts of DMSO. After 5, 7 and 10 DIV the cells were fixed with 4% PFA for further immunocytochemical analysis. Anti-CNPase antibodies (1:200;Covance; Cat#SMI-91R), anti-MBP antibodies (1:200; Serotec; Cat#MCA4095) for detecting oligodendrocytes and anti-Olig2 antibodies (1:250; Millipore; Cat#AB9610) as a marker for all oligodendroglial stages were used. Ten random fluorescence digital images were taken in each coverslip with a DFC480 FX digital camera (Leica) coupled to a Leica DM5000 B microscope for quantification. Data were expressed as a mean ratio of differentiated oligodendrocytes (CNPase^+-Olig2^+ double positive cells) with respect to total Olig2^+ cells ± SEM or percentage of CNPase^+ cells respect to control ± SEM, in at least three independent experiments, except with human samples (two independent experiments).

adult human OPCs = experiment: Differentiation assay, adult human OPCs; type: cell-based
Description: Human brain samples were obtained from adult patients of temporal lobe epilepsy resistant to pharmacological treatment or traumatic brain injury; they underwent surgical treatment by the Neurosurgery Service at the Hospital Universitario de La Princesa (Madrid, Spain) and Hospital 12 de Octubre (Madrid, Spain). All tissue samples were obtained under protocols approved by the Research Ethics Committee of Toledo (Spain) review boards. All were conducted in accordance with the Helsinki Declaration and were approved by the Research Ethics Committee of Toledo (Spain). All patients provided informed consent prepared under the guidelines of the Research Ethics Committee at their respective hospital in Madrid (Spain).
For cells obtained from human biopsies, the same protocol was used except that papain solution was used 1:2.5 in HBSS for 10 minutes for meningeal disintegration and 1:10 in HBSS for 15 minutes for the tissue digestion, 25 cm[2] flasks were used, the medium was supplemented with 10 ng/ml of human PDGF-AA (Millipore) for 2 weeks and then incubated for 2 more weeks without growth factors before shaking and the shaking was carried out at 230 rpm instead of 250 rpm.
as §1

[3] = test system: cerebellar slices demyelinated with LPC; experiment: Ex vivo remyelination in cerebellar slice cultures demyelinated with LPC; type: cell-based, CD1 P7 mice; settings: 5 μM, 3 days post lesion (3DPL)
Description: The protocol used was modified from previously described. CD1 P7 mice were decapitated, and their cerebella were dissected into ice-cold HBSS (Invitrogen). 300 μm sagittal slices of cerebellum were cut using a McIllwain tissue chopper, placed on Millicell-CM organotypic culture inserts (3 slices per insert; Millipore) in a medium containing HBSS:BME: horse serum (1:2:1, Invitrogen), 28 mM D (+) - glucose (Normapur), […] L-Glutamine (Invitrogen) and 100 U/mL penicillin, 0.1 mg/mL streptomycin and 0.25 μg/ml Amphotericin B antibiotic anti-mycotic solution (Sigma) and maintained at 5% CO2 and 37 °C. Medium was changed every two days, and after 7 days in culture, demyelination was induced by addition of 0.5 mg/ml LPC (Sigma) to the medium for 15 h. After that, slices were treated with fresh medium containing PDE7-GSK3 or GSK3 inhibitors (VP1.15, VP3.15 or TDZD8; 5 μM). Cultures were maintained for 1 or 3 days post lesion (DPL), and then fixed for 40 minutes and immunostained with anti-MBP antibodies (myelin basic protein –as a marker of myelin; 1:200; Serotec; Cat#MCA4095) and anti-neurofilament antibody (as a marker of axons; 1:200; Abcam; Cat#ab8135). Fluorescence images were taken on a confocal SP5 resonant scanner (Leica Microsystems) at 1μm intervals in white matter areas at x40 magnification. The photographs were merged and co-localisation of both markers was quantified with Image J software using the colocalization highlighter plugin. This measurement was related to the area occupied by axons (neurofilament staining) and normalized with control values showing the data as the mean normalized myelination index ± SEM. Quantification was made in at least three independent experiments.

[4] = i.p. 10 mg.kg^−1 single dose, brain
[5] = ip, i.p. 10 mg.kg^−1 single dose, brain
[6] = ip, i.p. 10 mg.kg^−1 single dose, plasma
[7] = po, p.o. 50 mg.kg^−1 single dose, brain
[8] = po, p.o. 50 mg.kg^−1 single dose, plasma
[9] = p.o. 50 mg.kg^−1 single dose, brain
[10] = murine P0 OPCs, 1 μM, 5, 7 and 10 DIV

For `c1ccc(-c2n/c(=N/CCN3CCOCC3)sn2-c2ccccc2)cc1` [VP3.15], the AUCinf [1, 4] was 1506.00 ng·h/g, the AUClast [1, 4] was 1489.25 ng·h/g and the “oral bioavailability and brain penetration” value ([1]; mice, after oral and i.p. administration) was “shows oral bioavailability and brain penetration”. The Cmax [1, 5] was 1980 ng/g, the MRT inf [1, 5] was 1.25 h and the MRT last [1, 5] was 1.21 h. It also gave a Tmax [1, 5] of 0.08 h, an AUC(0-inf) [1, 6] of 2000 ng·h/mL and an AUC(0-t) [1, 6] of 1960 ng·h/mL. For the same compound, the Cmax [1, 6] was 1990 ng/mL, the MRT inf [1, 6] was 0.91 h and the MRT last [1, 6] was 0.82 h. The Tmax [1, 6] was 0.25 h, the Cmax [1, 7] was 497 ng/g and the MRT inf [1, 7] was 4.01 h. The MRT last [1, 7] was 2.07 h, the Tmax [1, 7] was 0.5 h and the AUC(0-inf) [1, 8] was 2380 ng·h/mL. For the same compound, the AUC(0-t) [1, 8] was 2290 ng·h/mL, the Cmax [1, 8] was 881 ng/mL and the MRT inf [1, 8] was 1.86 h. For the same compound, the MRT last [1, 8] was 1.64 h, the Tmax [1, 8] was 1 h and the AUCinf [1, 9] was 1794.28 ng·h/g. The AUClast [1, 9] was 1375.08 ng·h/g, the “number of mature oligodendrocytes (CNPase+-Olig2+ cells) vs control” value [2, 10] was “significant increase” and the “number of mature oligodendrocytes (MBP+-Olig2+ cells) vs control” value [2, 10] was “significant increase”. The “number of primary cytoplasmic processes” value ([2]; murine mature oligodendrocytes, control 4.9 ± 0.35, p = 0.64) was 4.7 ± 0.31, the “number of cytoplasmic subprocesses” value ([2]; murine mature oligodendrocytes, control 8.588 ± 0.875, p = 0.62) was 8.111 ± 0.970 and the “number of CNPase+-Olig2+ cells vs control (differentiation)” value (adult human OPCs; adult human OPCs, 1 μM, 5 DIV) was “significantly increased”. For the same compound, the “number of primary cytoplasmic processes” value (adult human OPCs; adult human oligodendrocytes, control 2.9 ± 0.21, p = 0.72) was 2.75 ± 0.20, the “number of cytoplasmic subprocesses” value (adult human OPCs; adult human oligodendrocytes, control 4.3 ± 0.2, p = 0.83) was 4.8 ± 0.43 and the “remyelination (normalized myelination index)” value [3] was “increased”.
